The target in test [1] is T1, recombinant human NaV1.8 stably transfected HEK cells (Homo sapiens, UniProt Q9Y5Y9).
T1 construct: expressed in transfected cells; host or cells: HEK cells, stably transfected
Kind of test: Compound profiling on NaV1.8, human NaV1.8 cell line, SyncroPatch384PE automated patch clamp assay (Example 115, third set of compounds, Table 27). It counts as cell-based. The following applies: human NaV1.8 HEK cells, Table 27 (third set of compounds). How it is done: Compound Profiling on NaV1.8 Human NaV1.8 Cell Line SyncroPatch384PE Assay
Compounds were tested on recombinant human NaV1.8 stably transfected HEK cells using the SyncroPatch384PE system, an automated patch clamp device. Cells were cultured at 37° C./5% CO2 in DMEM medium supplemented with GlutaMAX I, NEAA 1%, FBS 10% and seeded in T175 flasks. Cells were cultured at 30° C. one day prior to recording sodium currents. On the day of the recordings, cells were detached with 0.05% Trypsin-EDTA, resuspended in serum free DMEM medium and placed into the SyncroPatch384PE 6° C. pre-cooled cell hotel and shaken at 200 rpm. Intracellular solution (IC) contained, in mM: 10, CsCl; 110, CsF; 20, EGTA; 10, HEPES. Extracellular solution (EC) contained, in mM: 140, NaCl; 4, KCl; 5, Glucose; 10, HEPES; 2, CaCl2; 1, MgCl2. Washing solution contained, in mM: 40, NMDG; 100, NaCl; 4, KCl; 10, Glucose; 10, HEPES; 5, CaCl2; 1, MgCl2.
Compounds were tested in quadruplicates in 0.1% DMSO and 0.030% Pluronic Acid. Compounds were diluted 1:3.33 in EC solution to create a 10-point concentration response curve, spanning a final concentration range from 10-0.0002 μM in the assay plate. Compounds with low nM potency were retested using a lower concentration range (1-0.00002 μM). Each plate contained tetracaine and another tool compound as positive controls. Up to 7 compounds were tested on one plate. 150 μM tetracaine and 0.1% DMSO were used as high and low controls, respectively.
Whole cell patch clamp recordings were conducted according to Nanion's standard procedure for SyncroPatch384PE®. Cells were held at a holding potential of −120 mV. A depolarization step to 10 mV for 30 ms was applied (P1 measurement), followed by a hyperpolarization step to −100 mV for 100 ms. An inactivation step at −40 mV for 10 sec was applied before stepping to −100 mV for 20 ms, followed by a step to 10 mV for 30 ms (P2 measurement) and then back to −100 mV for 30 ms. Sweep interval was 15 sec with a sampling rate of 10 kHz. Following establishment of the whole-cell configuration in EC, two washing steps with reference buffer were performed to stabilize the baseline. Compounds were then applied by the SynchroPatch into each well and the current was recorded for five minutes in EC, followed by application of tetracaine to achieve full block at the end of the experiment. The potency of the compounds was assessed on two read-outs, resting state block (P1 measurement) or inactivated state block (P2 measurement) to obtain IC50 values. Values were normalized to high (tetracaine) and low (DMSO) controls.

The target of test [2] is T1, recombinant human NaV1.8 stably transfected HEK cells. Description: Compound profiling on NaV1.8, human NaV1.8 cell line, SyncroPatch384PE automated patch clamp assay (Example 102, first set of compounds, Table 16). The class given is cell-based. The settings on record: human NaV1.8 HEK cells, Table 16 (first set of compounds). The method in brief: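 IC50s come from two read-outs: resting-state block (P1, 10 mV step from −120 mV) and inactivated-state block (P2, after 10 s at −40 mV), scaled between DMSO and 250 μM tetracaine. Compounds (20–0.001 μM final, 1:3 steps) were applied for 5 min, 15 s sweeps. Cells kept at 30 °C the day before.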

The mark [3] stands for this setting: inactivated state block (P2 measurement), read-out: P2 IC50.
[4] abbreviates: resting state block (P1 measurement), read-out: P1 IC50.

T1 sequence (Q9Y5Y9 whole entry): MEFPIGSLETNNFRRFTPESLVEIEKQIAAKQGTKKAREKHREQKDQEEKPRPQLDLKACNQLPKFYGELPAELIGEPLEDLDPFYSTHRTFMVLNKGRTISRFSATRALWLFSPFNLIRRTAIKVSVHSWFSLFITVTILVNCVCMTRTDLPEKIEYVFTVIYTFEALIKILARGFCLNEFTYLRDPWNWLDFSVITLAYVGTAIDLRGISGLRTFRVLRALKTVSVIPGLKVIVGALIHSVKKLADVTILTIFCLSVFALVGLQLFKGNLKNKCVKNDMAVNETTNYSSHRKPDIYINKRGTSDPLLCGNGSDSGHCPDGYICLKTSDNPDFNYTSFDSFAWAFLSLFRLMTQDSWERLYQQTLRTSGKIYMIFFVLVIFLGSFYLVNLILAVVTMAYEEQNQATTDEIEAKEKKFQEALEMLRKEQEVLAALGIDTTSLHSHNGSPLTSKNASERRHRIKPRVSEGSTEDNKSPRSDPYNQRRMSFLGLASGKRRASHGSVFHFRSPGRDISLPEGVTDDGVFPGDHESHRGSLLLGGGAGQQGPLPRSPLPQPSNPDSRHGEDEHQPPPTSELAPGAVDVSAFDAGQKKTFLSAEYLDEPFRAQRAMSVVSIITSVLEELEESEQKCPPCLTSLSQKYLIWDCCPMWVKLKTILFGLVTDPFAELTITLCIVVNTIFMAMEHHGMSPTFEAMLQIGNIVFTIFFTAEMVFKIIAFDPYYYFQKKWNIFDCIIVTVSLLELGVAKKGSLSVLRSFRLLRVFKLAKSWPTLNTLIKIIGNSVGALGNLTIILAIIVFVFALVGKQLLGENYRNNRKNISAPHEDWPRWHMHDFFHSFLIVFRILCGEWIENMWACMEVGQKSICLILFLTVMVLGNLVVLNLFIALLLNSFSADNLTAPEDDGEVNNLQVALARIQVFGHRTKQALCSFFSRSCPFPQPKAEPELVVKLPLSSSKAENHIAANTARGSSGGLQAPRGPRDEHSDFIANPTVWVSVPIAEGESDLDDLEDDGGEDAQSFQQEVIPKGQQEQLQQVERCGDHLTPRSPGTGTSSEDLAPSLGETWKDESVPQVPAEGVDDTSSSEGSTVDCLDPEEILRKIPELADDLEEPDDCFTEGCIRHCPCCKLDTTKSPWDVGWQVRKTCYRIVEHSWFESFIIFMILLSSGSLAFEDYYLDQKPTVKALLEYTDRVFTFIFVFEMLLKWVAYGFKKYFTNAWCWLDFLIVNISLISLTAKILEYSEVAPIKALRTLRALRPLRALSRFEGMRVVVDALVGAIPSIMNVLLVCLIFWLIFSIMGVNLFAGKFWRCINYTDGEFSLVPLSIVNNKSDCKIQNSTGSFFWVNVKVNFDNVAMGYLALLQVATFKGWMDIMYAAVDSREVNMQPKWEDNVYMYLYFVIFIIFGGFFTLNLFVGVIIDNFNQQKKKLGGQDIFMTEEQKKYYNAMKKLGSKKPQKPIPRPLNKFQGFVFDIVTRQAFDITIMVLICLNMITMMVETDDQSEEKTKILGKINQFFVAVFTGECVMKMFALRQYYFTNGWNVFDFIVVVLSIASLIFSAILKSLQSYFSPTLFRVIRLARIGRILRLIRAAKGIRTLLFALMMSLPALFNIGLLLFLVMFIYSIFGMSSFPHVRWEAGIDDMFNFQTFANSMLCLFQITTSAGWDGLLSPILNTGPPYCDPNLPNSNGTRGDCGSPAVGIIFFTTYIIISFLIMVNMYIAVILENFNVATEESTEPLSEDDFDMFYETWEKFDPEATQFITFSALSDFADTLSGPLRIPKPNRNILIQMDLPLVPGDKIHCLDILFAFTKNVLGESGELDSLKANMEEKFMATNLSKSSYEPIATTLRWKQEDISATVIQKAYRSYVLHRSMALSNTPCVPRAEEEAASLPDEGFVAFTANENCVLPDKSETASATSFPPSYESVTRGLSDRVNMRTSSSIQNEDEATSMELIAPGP

On to `Cc1cc(F)ccc1Oc1nnc(C(F)(F)F)cc1C(=O)Nc1cccc(CS(C)(=O)=O)c1` [Compound 10], for which the IC50 in test [1] (setting [3]) and in test [1] (setting [4]) was greater than 5000 nM throughout.

As for `CCOc1cc(F)ccc1Oc1nnc(C)cc1C(=O)Nc1cccc(S(C)(=N)=O)c1` (centres unmarked) [Compound 95, 3-(2-Ethoxy-4-fluorophenoxy)-6-methyl-N-(3-(S-methylsulfonimidoyl)phenyl)pyridazine-4-carboxamide], the IC50 in test [1] (setting [3]) and in test [1] (setting [4]) was greater than 5000 nM throughout.

For the compound `Cc1cc(OC(F)(F)F)ccc1Oc1nnc(C(F)(F)F)cc1C(=O)Nc1cccc(S(N)(=O)=O)c1` [Compound 47], the IC50 in test [1] (setting [3]) and in test [1] (setting [4]) was no more than 200 nM in each case.

On to `Cc1cc(F)ccc1Oc1nnc(C(F)(F)F)cc1C(=O)Nc1ccc(S(C)(=N)=O)cc1` (centres unmarked) [Compound 98, 3-(4-Fluoro-2-methylphenoxy)-N-(4-(S-methylsulfonimidoyl)phenyl)-6-(trifluoromethyl)pyridazine-4-carboxamide], for which the IC50 in test [1] (setting [3]) and in test [1] (setting [4]) was greater than 5000 nM each time.

With `O=C(Nc1ccc[n+]([O-])c1)c1cc(C(F)(F)F)nnc1Oc1ccc(F)cc1Cl` [Compound 62], the IC50 in test [1] (setting [3]) and in test [1] (setting [4]) was greater than 5000 nM in each case.

Take `Cc1cc(F)ccc1Oc1nnc(C(F)(F)F)cc1C(=O)Nc1ccc(S(C)(=O)=O)cc1` [Compound 40]: the IC50 in test [1] (setting [3]) was greater than 5000 nM; in test [1] (setting [4]) it was 1000 to 5000 nM.

Consider `CNC(=O)c1ccc(NC(=O)c2cc(C(F)(F)F)nnc2Oc2ccc(F)cc2OC)cc1` [Compound 127, 3-(4-Fluoro-2-methoxyphenoxy)-N-(4-(methylcarbamoyl)phenyl)-6-(trifluoromethyl)pyridazine-4-carboxamide], for which the IC50 in test [1] (setting [3]) and in test [1] (setting [4]) was 501 to 1000 nM throughout.

For the compound `COc1cc(C#N)ccc1Oc1nnc(C(F)(F)F)cc1C(=O)Nc1cccc(S(N)(=O)=O)c1` [Compound 121, 3-(4-Cyano-2-methoxyphenoxy)-N-(3-sulfamoylphenyl)-6-(trifluoromethyl)pyridazine-4-carboxamide], the IC50 in test [1] (setting [3]) and in test [1] (setting [4]) was no more than 200 nM in each case.

For the compound `COc1cc(F)ccc1Oc1nnc(C(F)(F)F)cc1C(=O)Nc1cccc(CS(C)(=O)=O)c1` [Compound 19], the IC50 in test [1] (setting [3]) and in test [1] (setting [4]) was 1000 to 5000 nM in each case.

As to `COc1cc(F)ccc1Oc1nnc(C(F)(F)F)cc1C(=O)Nc1cccc(-n2cnnc2)c1` [Compound 22], the IC50 in test [1] (setting [3]) and in test [1] (setting [4]) was 1000 to 5000 nM each time.

Take `Cc1cc(F)ccc1Oc1nnc(C(F)(F)F)cc1C(=O)Nc1cccc([S@](C)(=N)=O)c1` [Compound 102, (R)-3-(4-fluoro-2-methylphenoxy)-N-(3-(S-methylsulfonimidoyl)phenyl)-6-(trifluoromethyl)pyridazine-4-carboxamide]: the values for the IC50 in test [1] (setting [3]) and in test [1] (setting [4]) were 201 to 500 nM and 501 to 1000 nM, respectively.

`COc1cc(F)ccc1Oc1nnc(C(F)(F)F)cc1C(=O)Nc1cccc(S(C)(=N)=O)c1` (centres unmarked) [Compound 99, 3-(4-Fluoro-2-methoxyphenoxy)-N-(3-(S-methylsulfonimidoyl)phenyl)-6-(trifluoromethyl)pyridazine-4-carboxamide]: the IC50 in test [1] (setting [3]) and in test [1] (setting [4]) was no more than 200 nM throughout.

Take `CS(=O)(=O)c1cccc(NC(=O)c2cc(C(F)(F)F)nnc2Oc2ccc(F)cc2O)c1` [Compound 130, 3-(4-Fluoro-2-hydroxyphenoxy)-N-(3-(methylsulfonyl)phenyl)-6-(trifluoromethyl)pyridazine-4-carboxamide]: the IC50 in test [1] (setting [3]) was 1000 to 5000 nM; in test [1] (setting [4]) it was greater than 5000 nM.

Regarding `Cc1cc(OC(F)(F)F)ccc1Oc1nnc(C(F)(F)F)cc1C(=O)Nc1ccc(C(N)=O)cc1` [Compound 37], the IC50 in test [1] (setting [3]) and in test [1] (setting [4]) was no more than 200 nM throughout.

Regarding `CS(=O)(=O)c1cncc(NC(=O)c2cc(C(F)(F)F)nnc2Oc2ccc(F)cc2Cl)c1` [Compound 66], the figures for the IC50 in test [1] (setting [3]) and in test [1] (setting [4]) were 1000 to 5000 nM and greater than 5000 nM, respectively.

As to `COc1cc(F)ccc1Oc1nnc(C(F)(F)F)cc1C(=O)Nc1cnnc(C#N)c1` [Compound 55], the IC50 in test [1] (setting [3]) and in test [1] (setting [4]) was 1000 to 5000 nM each time.

For `CS(=O)(=O)c1cccc(NC(=O)c2cc(C(F)(F)F)nnc2Oc2ccc(F)cc2Cl)c1` [Compound 64], the IC50 in test [1] (setting [3]) and in test [1] (setting [4]) was no more than 200 nM throughout.

Regarding `Cc1cc(F)ccc1Oc1nnc(C(F)(F)F)cc1C(=O)Nc1cccc(-n2cncn2)c1` [Compound 9], the IC50 is 1000 to 5000 nM in test [1] (setting [3]) and greater than 5000 nM in test [1] (setting [4]).

Turning to `NC(=O)c1cncc(NC(=O)c2cc(C(F)(F)F)nnc2Oc2cc(F)ccc2Cl)c1` [Compound 84], the IC50 in test [1] (setting [3]) and in test [1] (setting [4]) was greater than 5000 nM in each case.

For `CS(=O)(=O)c1cc(NC(=O)c2cc(C(F)(F)F)nnc2Oc2ccc(F)cc2Cl)ccn1` [Compound 65], the IC50 in test [1] (setting [3]) and in test [1] (setting [4]) was 501 to 1000 nM in each case.

`Cc1c[nH]c(=O)cc1NC(=O)c1cc(C(F)(F)F)nnc1Oc1ccc(F)cc1C` [Compound 90, 3-(4-Fluoro-2-methylphenoxy)-N-(5-methyl-2-oxo-1,2-dihydropyridin-4-yl)-6-(trifluoromethyl)pyridazine-4-carboxamide]: the IC50 in test [1] (setting [3]) and in test [1] (setting [4]) was greater than 5000 nM in each case.

Turning to `Cc1cc(F)ccc1Oc1nnc(C(F)(F)F)cc1C(=O)Nc1cccc(-n2cnnc2)c1` [Compound 12], the IC50 in test [1] (setting [3]) and in test [1] (setting [4]) was 1000 to 5000 nM throughout.

In the case of `Cc1cc(F)ccc1Oc1nnc(C(F)(F)F)cc1C(=O)Nc1ccn2cnnc2c1` [Compound 11], the IC50 in test [1] (setting [3]) and in test [1] (setting [4]) was 1000 to 5000 nM each time.

As to `COc1cc(F)ccc1Oc1nnc(C(F)(F)F)cc1C(=O)Nc1cccc(S(C)(=O)=O)n1` [Compound 15], the values for the IC50 in test [1] (setting [3]) and in test [1] (setting [4]) were 1000 to 5000 nM and greater than 5000 nM, respectively.

With `COc1cc(F)ccc1Oc1nnc(C(F)(F)F)cc1C(=O)Nc1ccc(C(N)=O)cc1` [Compound 27], the IC50 in test [1] (setting [3]) and in test [1] (setting [4]) was no more than 200 nM each time.

With `COc1cc(F)ccc1Oc1nnc(C(F)(F)F)cc1C(=O)Nc1cccc(NS(C)(=O)=O)c1` [Compound 18], the IC50 in test [1] (setting [3]) fell in the range of 501 to 1000 nM; in test [1] (setting [4]), 1000 to 5000 nM.

For `CSc1ccc(NC(=O)c2cc(C(F)(F)F)nnc2Oc2ccc(F)cc2C)cc1` [Compound 32], the IC50 in test [1] (setting [3]) and in test [1] (setting [4]) was greater than 5000 nM each time.

As for `CS(=O)(=O)c1cccc(NC(=O)c2cc(C(F)(F)F)nnc2Oc2cccc(OC(F)(F)F)c2)c1` [Compound 52], the IC50 in test [1] (setting [3]) and in test [1] (setting [4]) was greater than 5000 nM in each case.

Take `COc1cc(F)ccc1Oc1nnc(C(F)(F)F)cc1C(=O)Nc1ccc(C)c(S(C)(=O)=O)c1` [Compound 107, 3-(4-Fluoro-2-methoxyphenoxy)-N-(4-methyl-3-(methylsulfonyl)phenyl)-6-(trifluoromethyl)pyridazine-4-carboxamide]: the IC50 in test [1] (setting [3]) and in test [1] (setting [4]) was no more than 200 nM in each case.

Consider `CS(=O)(=O)c1cccc(NC(=O)c2cc(C(F)(F)F)nnc2Oc2cc(OC(F)(F)F)ccc2F)c1` [Compound 44], for which the IC50 in test [1] (setting [3]) fell in the range of 501 to 1000 nM; in test [1] (setting [4]) it was 201 to 500 nM.

For `COc1cc(C#N)ccc1Oc1nnc(-c2ccc(C(F)F)cc2)c(C)c1C(=O)Nc1cccc(S(C)(=N)=O)c1` (centres unmarked) [Compound 1453, 3-(4-cyano-2-methoxy-phenoxy)-6-[4-(difluoromethyl)phenyl]-5-methyl-N-[3-(methylsulfonimidoyl)phenyl]pyridazine-4-carboxamide], the IC50 is no more than 20 nM in test [2] (inactivated state block (P2 measurement), read-out: P2IC50) and no more than 20 nM in test [2] (resting state block (P1 measurement), read-out: P1IC50).

Values taken from patent US20240336574A1 (LATIGO BIOTHERAPEUTICS, INC., priority 2021, published 2024).
